Assay results reported in patent US20070148090A1, “Per (3,6-anhydro) cyclodextrin derivatives, preparation thereof and use thereof for transporting metal elements to biological targets or for decontaminating biological targets of fluids” (priority 2003, published 2007).
Entries after “also recorded” stand apart in the source; their conditions may differ.

Columns and labels:
[1] = complexation of erbium on ion-loaded thin layer chromatography plates (1/Rf); assay type: binding; conditions: Polygram Ionex 25-SA-Na plates loaded with Er^3+, developed four times in water; FIG. 4
Source text: (§1) To evaluate the complexation, ion-loaded thin layer chromatography plates which allow rapid evaluation of the complexation of these ions by the species to be evaluated are used. In the present case, plates of Polygram Ionex 25-SA-Na type (Macherey-Nagel, ref: 80613) loaded with various counterions were used. In each test, the compound to be tested is introduced onto the plate, and if the compound complexes the ions, they will be retained on the plate. The plates are then developed four times in water, because of the small amount of migration of the cyclodextrin derivatives, and then the degree of complexation is determined through the value 1/Rf, where Rf represents the ratio: (distance covered by the cyclodextrin derivative/distance covered by the solvent).
(§2) Measurements of degree of complexation of lead (in the form Pb^2+) and of erbium in the form (Er^3+) were carried out for the following three compounds: • the base cyclodextrin mono-2-O-carboxyméthyle-per-(3,6-anhydro)cyclomaltohexaose (designated (1) in FIG. 4); • a cyclodextrin in accordance with the invention, prepared in the context of Example 1 (denoted (2) in FIG. 4); • a cyclodextrin in accordance with the invention, prepared in the context of Example 2 (denoted (3) in FIG. 4).

[2] = complexation of lead on ion-loaded thin layer chromatography plates (1/Rf); assay type: binding; conditions: Polygram Ionex 25-SA-Na plates loaded with Pb^2+, developed four times in water; FIG. 4
Source text: as §1, §2

Substance	erbium-complexation properties (degree of complexation, 1/Rf) [1]	lead-complexation properties (degree of complexation, 1/Rf) [2]
mono-2-O-carboxymethyl-per-(3,6-anhydro)cyclomaltohexaose [noncoupled per(3,6-anhydro)cyclodextrin, reference compound]	does not complex erbium	
[(mono-2-O-methyl(mono-ε-amidopoly-L-Lysine)]-per-(3,6-anhydro)-α-cyclodextrin [Example 2]	particularly advantageous; also recorded: complex erbium	particularly advantageous
